One series relates to R. gnavus ATCC 29149. The arrangement: method as in PMID 24204617. Conditions: cited from earlier work.
Series [1] can be described thus: Spontaneous interconversion of 2,7-anhydro-Neu5Ac and Neu5Ac by 1H NMR. Type of series: physicochemical. Conditions: up to 24 h at 37 °C. As to the method: The products of the reaction were thus further monitored by ^1H nuclear magnetic resonance (NMR). […] (Fig. 3). These peaks are characteristic of 2,7-anhydro-α-N-acetylneuraminic acid (2,7-anhydro-Neu5Ac) and arise from the protons in positions 6 and 7 (Fig. 3a). Peaks corresponding to 2,7-anhydro-Neu5Ac were observed when RgNanH was incubated in presence of 4MU-Neu5Ac (Fig. 3a) or 3′SL (Fig. 3b). […] The signals of 2,7-anhydro-Neu5Ac and their chemical shifts are shown in Supplementary Table 1. This product was absent in control experiments using A. muciniphila sialidases (AkmNan0625 and AkmNan1835) or in absence of enzyme, confirming the specificity of the enzymatic reaction (Supplementary Fig. 5).
Extracts (400 μl) were mixed with 200 μl of D2O and 20 μl of a solution of D2O containing 1 mM of TSP (sodium 3-(trimethylsilyl)-propionate-d4). Samples (500 μl) were transferred into a 5-mm NMR tube for spectral acquisition. The ^1H NMR spectra were recorded at 600 MHz on a Bruker Avance spectrometer (Bruker BioSpin GmbH, Rheinstetten, Germany) running Topspin 2.0 software, and were fitted with a cryoprobe and a 60-slot autosampler. Each ^1H NMR spectrum was acquired with 128 scans, a spectral width of 8,012.8 Hz, an acquisition time of 2.04 s and a relaxation delay of 2.0 s. […]

For another series, the target named is T1, RgNanH (Mediterraneibacter gnavus (Ruminococcus gnavus), UniProt A7B557).
T1 sequence (A7B557 26-723): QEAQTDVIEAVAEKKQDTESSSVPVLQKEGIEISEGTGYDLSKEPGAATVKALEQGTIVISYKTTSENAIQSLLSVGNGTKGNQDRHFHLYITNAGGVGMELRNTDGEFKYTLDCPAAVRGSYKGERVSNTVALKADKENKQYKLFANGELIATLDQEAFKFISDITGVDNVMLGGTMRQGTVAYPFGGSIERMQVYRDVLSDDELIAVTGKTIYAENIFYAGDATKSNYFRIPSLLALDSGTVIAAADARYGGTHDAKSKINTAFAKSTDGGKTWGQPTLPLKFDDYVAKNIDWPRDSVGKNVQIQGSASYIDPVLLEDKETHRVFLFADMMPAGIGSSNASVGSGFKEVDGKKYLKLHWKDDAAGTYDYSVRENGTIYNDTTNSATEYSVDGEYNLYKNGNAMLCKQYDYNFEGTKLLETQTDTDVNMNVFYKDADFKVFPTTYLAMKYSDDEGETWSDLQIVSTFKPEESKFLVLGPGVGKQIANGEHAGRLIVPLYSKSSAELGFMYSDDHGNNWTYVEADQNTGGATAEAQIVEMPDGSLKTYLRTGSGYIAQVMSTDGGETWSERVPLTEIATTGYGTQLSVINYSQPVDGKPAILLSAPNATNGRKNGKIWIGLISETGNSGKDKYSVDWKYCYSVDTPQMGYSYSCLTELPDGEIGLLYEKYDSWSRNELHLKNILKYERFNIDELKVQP
The experiment in a line: Inhibition of RgNanH activity against 4MU-Neu5Ac by neuraminidase inhibitors. Conditions: 4MU-Neu5Ac 0.51 mM, 1 nM enzyme; Neu5Ac 0-0.3 mM, Lac 0-1.5 mM; pH 6.5, 37 °C. Type of series: biochemical, Ruminococcus gnavus ATCC 29149. As to the method:
Figure 1 Kinetic analysis of the hydrolysis of sialylated substrates by RgNanH in presence or absence of inhibitors. Substrate (a) 4MU-Neu5Ac or (b) PNP-Neu5Ac was incubated with RgNanH ([…] and 0.43 nM, respectively) at 37 °C, pH 6.5 and the release of product measured using a plate reader. (c) Inhibition of RgNanH (1.00 nM) incubated with 4MU-Neu5Ac (0.51 mM) by zanamivir (●), Neu5Ac2en (▪), siastatin B (▴) and OC (♦), the rates are normalized to a % of the uninhibited rate. [I] is the inhibitor concentration. (d) 3′SL was incubated with RgNanH (2.25 nM) and the release of product measured by HPAEC-PAD. Experiments were done at least in duplicate (usually triplicate) and the error bars show the s.e.m.
The purified enzymes were incubated with the substrate in buffer made from 20 mM Na2HPO4 and 20 mM NaH2PO4 adjusted to pH 6.5 containing 1 mg ml^−1 BSA at 37 °C unless otherwise stated. For 4MU-Neu5Ac, the progression of the reaction was monitored by the release of the MU using a 96-well plate reader (BMG Labtech, Ortenberg, Germany) using fluorescence with an excitation at 340 nm and an emission at 420 nm. For determining the optimal temperature, the assay was carried out in 20 mM PBS at pH 7.4. For determining the optimal pH, the assay was carried out at 37 °C using buffer made from 20 mM Na2HPO4 and 20 mM NaH2PO4 in varying proportions to obtain the desired pH. PNP release from PNP-Neu5Ac was monitored in a similar way measuring absorbance at 405 nm every 60 s. For 3′SL, the reaction was monitored by HPAEC-PAD. An aliquot of the reaction was removed from the main reaction volume at the reaction stopped by boiling for 20 min, the enzyme was then removed by centrifugation at 17,000g for 10 min and filtration with a 0.2-μm filter (Millipore, Billerica, USA). The sugars were separated by HPAEC with an isocratic gradient of 100 mM NaOH and 100 mM NaAC at 1 ml min^−1 on a CarboPac PA1 protected with a guard column and detected using PAD on a Dionex ICS5000 system (Thermo Scientific, Hemel Hempstead, UK). The column was cleaned with 10 ml of 500 mM NaOH and 500 mM NaAc, and the column was re-equilibrated with 100 mM NaOH and 100 mM NaAc. An internal standard of fucose was used to quantify the results. […]

Structures are written as SMILES.

Regarding `CC(=O)N[C@H]1[C@H]([C@H](O)[C@H](O)CO)OC(O)(C(=O)O)C[C@@H]1O` (stereo partly shown) [Neu5Ac, sialic acid], the “ability of the bacteria to grow on the substrate” value in the series on R. gnavus ATCC 29149 (R. gnavus ATCC 29149) is “not”. In addition, in the series on R. gnavus ATCC 29149 (R. gnavus ATCC 29149 and E1), the “growth on sole carbon source” value is recorded as “could not grow”. Also, the “spontaneous conversion between 2,7-anhydro-Neu5Ac and Neu5Ac” value in series [1] is “no evidence of spontaneous conversion”. In addition, the “Inhibition of RgNanH” value on RgNanH is “not inhibited”.

The values above are taken from paper PMC4510645, “Discovery of intramolecular trans-sialidases in human gut microbiota suggests novel mechanisms of mucosal adaptation” (Nature Communications, 2015).
